According to publication PMC8429728, “TNK1 is a ubiquitin-binding and 14-3-3-regulated kinase that can be targeted to block tumor growth” (Nature Communications, 2021):
pIC50: −log10 of the molar value. Read-outs that look alike come from different tables or passages of the source.

Experiments:
PKG2/PRKG2 = PKG2/PRKG2 (Homo sapiens, UniProt Q13237); experiment: biochemical; set-up: Reaction Biology 371-kinase panel at Km ATP, per cent enzyme activity relative to DMSO, single dose in duplicate; conditions: duplicate measurements, Km ATP; read-out: % Enzyme Activity (relative to DMSO controls) / TP-0005801 (0.3µM) / Data 1
Description: (§1) To assess kinase selectivity, we screened TP-5801 (300 nM) against a panel of 371 kinases in vitro. […] In addition to TNK1, only 7 other kinases were inhibited by more than 90% (Supplementary Fig. 8 and Supplementary Data 2). […] The resulting % Enzyme activity (relative to DMSO controls) were plotted in GraphPad and IC50 values were determined by sigmoidal dose-response (variable slope) curve fits, with a bottom constraint of 0.

ALK2/ACVR1 = ALK2/ACVR1 (Homo sapiens, UniProt Q04771); experiment: biochemical; set-up: Reaction Biology 371-kinase panel at Km ATP, per cent enzyme activity relative to DMSO, single dose in duplicate; conditions: duplicate measurements, Km ATP; read-out: % Enzyme Activity (relative to DMSO controls) / TP-0005801 (0.3µM) / Data 1
Description: as §1

FER = FER (Homo sapiens, UniProt P16591); experiment: biochemical; set-up: Reaction Biology 371-kinase panel at Km ATP, per cent enzyme activity relative to DMSO, single dose in duplicate; conditions: duplicate measurements, Km ATP
Description: as §1

SBK1 = SBK1 (Homo sapiens, UniProt Q52WX2); experiment: biochemical; set-up: Reaction Biology 371-kinase panel at Km ATP, per cent enzyme activity relative to DMSO, single dose in duplicate; conditions: duplicate measurements, Km ATP
Description: as §1

MSK1/RPS6KA5 = MSK1/RPS6KA5 (Homo sapiens, UniProt O75582); experiment: biochemical; set-up: Reaction Biology 371-kinase panel at Km ATP, per cent enzyme activity relative to DMSO, single dose in duplicate; conditions: duplicate measurements, Km ATP
Description: as §1

MST3/STK24 = MST3/STK24 (Homo sapiens, UniProt Q9Y6E0); experiment: biochemical; set-up: Reaction Biology 371-kinase panel at Km ATP, per cent enzyme activity relative to DMSO, single dose in duplicate; conditions: duplicate measurements, Km ATP
Description: as §1

MEKK6 = target: T1, MEKK6 (Homo sapiens, UniProt O95382); experiment: biochemical; set-up: Reaction Biology 371-kinase panel at Km ATP, per cent enzyme activity relative to DMSO, single dose in duplicate; conditions: duplicate measurements, Km ATP
T1 construct: gene MAP3K6
Description: as §1

TSSK2 = TSSK2 (Homo sapiens, UniProt Q96PF2); experiment: biochemical; set-up: Reaction Biology 371-kinase panel at Km ATP, per cent enzyme activity relative to DMSO, single dose in duplicate; conditions: duplicate measurements, Km ATP
Description: as §1

LYN B = target: T2, LYN B (Homo sapiens, UniProt P07948); experiment: biochemical; set-up: Reaction Biology 371-kinase panel at Km ATP, per cent enzyme activity relative to DMSO, single dose in duplicate; conditions: duplicate measurements, Km ATP
T2 construct: isoform B
Description: as §1

PAK2 = PAK2 (Homo sapiens, UniProt Q13177); experiment: biochemical; set-up: Reaction Biology 371-kinase panel at Km ATP, per cent enzyme activity relative to DMSO, single dose in duplicate; conditions: duplicate measurements, Km ATP; read-out: % Enzyme Activity (relative to DMSO controls) / TP-0005801 (0.3µM) / Data 1
Description: as §1

RAF1 = RAF1 (Homo sapiens, UniProt P04049); experiment: biochemical; set-up: Reaction Biology 371-kinase panel at Km ATP, per cent enzyme activity relative to DMSO, single dose in duplicate; conditions: duplicate measurements, Km ATP
Description: as §1

STK38/NDR1 = STK38/NDR1 (Homo sapiens, UniProt Q15208); experiment: biochemical; set-up: Reaction Biology 371-kinase panel at Km ATP, per cent enzyme activity relative to DMSO, single dose in duplicate; conditions: duplicate measurements, Km ATP
Description: as §1

Aurora A = target: T3, Aurora A (Homo sapiens, UniProt O14965); experiment: radiometric […]-ATP kinase assay with recombinant kinase at Km ATP ([…]); type: biochemical
T3 construct: gene AURKA
T3 sequence (O14965 1-403): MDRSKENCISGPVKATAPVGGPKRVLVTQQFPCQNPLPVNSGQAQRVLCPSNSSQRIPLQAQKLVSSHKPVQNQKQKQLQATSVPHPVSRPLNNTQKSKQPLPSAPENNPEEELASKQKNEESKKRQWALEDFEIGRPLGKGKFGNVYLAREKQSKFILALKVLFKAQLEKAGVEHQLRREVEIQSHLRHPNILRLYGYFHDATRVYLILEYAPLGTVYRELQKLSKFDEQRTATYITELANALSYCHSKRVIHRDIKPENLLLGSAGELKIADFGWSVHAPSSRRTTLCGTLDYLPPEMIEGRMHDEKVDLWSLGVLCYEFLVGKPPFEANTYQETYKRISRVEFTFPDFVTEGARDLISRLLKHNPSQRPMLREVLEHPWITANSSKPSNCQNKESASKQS

TNK1 = target: T4, TNK1 (Homo sapiens, UniProt Q13470); experiment: radiometric […]-ATP kinase assay with recombinant kinase at Km ATP ([…]); supported by NanoBRET target engagement in HEK293 cells (IC50 […]); type: biochemical
T4 sequence (Q13470 1-666): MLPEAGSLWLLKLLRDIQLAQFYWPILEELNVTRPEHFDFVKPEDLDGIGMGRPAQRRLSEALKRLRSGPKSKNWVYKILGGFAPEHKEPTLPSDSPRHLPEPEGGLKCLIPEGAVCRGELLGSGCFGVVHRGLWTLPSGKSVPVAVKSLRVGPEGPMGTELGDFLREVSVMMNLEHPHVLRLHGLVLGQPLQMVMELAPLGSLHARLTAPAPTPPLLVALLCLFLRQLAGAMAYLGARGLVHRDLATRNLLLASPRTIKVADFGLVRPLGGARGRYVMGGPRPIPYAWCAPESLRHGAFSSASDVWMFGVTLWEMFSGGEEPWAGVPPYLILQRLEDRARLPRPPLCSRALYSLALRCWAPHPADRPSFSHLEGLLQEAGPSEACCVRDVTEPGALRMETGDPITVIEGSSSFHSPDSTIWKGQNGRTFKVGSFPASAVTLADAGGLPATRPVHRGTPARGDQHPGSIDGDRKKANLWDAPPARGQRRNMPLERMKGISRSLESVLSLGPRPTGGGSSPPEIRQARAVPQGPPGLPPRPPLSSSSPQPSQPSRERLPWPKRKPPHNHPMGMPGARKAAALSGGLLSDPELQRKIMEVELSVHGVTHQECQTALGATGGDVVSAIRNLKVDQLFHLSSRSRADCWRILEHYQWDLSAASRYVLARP

[1] = read-out: % Enzyme Activity (relative to DMSO controls) / TP-0005801 (0.3µM) / Data 1
[2] = read-out: % Enzyme Activity (relative to DMSO controls) / TP-0005801 (0.3µM) / Data 2

MSK1/RPS6KA5, sequence (O75582 whole entry): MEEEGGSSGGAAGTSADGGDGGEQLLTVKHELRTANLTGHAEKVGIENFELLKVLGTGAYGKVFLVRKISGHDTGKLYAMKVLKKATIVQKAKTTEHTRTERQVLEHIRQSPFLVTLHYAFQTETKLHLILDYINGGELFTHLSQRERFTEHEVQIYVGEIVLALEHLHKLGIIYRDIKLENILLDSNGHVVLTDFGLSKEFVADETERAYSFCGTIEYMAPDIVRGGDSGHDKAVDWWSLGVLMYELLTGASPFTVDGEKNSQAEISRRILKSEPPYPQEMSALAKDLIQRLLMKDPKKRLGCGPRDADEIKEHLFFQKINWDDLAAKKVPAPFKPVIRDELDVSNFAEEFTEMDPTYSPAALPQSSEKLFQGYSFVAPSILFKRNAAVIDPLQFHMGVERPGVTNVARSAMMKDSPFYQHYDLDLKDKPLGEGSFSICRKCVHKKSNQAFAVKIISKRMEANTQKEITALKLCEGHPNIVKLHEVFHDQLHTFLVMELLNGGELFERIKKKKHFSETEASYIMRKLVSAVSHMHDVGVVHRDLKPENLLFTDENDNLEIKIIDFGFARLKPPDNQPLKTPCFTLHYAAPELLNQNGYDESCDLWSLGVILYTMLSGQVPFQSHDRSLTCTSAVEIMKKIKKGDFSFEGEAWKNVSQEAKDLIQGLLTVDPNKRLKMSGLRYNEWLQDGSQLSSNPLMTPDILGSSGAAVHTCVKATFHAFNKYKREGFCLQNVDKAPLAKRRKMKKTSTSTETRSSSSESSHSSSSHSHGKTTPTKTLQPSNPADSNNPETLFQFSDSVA
TSSK2, sequence (Q96PF2 whole entry): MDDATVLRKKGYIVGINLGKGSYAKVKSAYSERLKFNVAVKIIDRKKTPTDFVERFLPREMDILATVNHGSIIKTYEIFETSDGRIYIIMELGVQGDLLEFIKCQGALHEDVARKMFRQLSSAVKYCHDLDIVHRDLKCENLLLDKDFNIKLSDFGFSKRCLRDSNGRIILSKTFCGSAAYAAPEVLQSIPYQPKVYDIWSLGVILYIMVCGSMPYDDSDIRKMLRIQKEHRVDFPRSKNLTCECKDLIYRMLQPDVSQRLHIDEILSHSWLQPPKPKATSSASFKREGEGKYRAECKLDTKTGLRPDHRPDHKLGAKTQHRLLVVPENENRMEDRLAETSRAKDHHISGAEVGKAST
MST3/STK24, sequence (Q9Y6E0 whole entry): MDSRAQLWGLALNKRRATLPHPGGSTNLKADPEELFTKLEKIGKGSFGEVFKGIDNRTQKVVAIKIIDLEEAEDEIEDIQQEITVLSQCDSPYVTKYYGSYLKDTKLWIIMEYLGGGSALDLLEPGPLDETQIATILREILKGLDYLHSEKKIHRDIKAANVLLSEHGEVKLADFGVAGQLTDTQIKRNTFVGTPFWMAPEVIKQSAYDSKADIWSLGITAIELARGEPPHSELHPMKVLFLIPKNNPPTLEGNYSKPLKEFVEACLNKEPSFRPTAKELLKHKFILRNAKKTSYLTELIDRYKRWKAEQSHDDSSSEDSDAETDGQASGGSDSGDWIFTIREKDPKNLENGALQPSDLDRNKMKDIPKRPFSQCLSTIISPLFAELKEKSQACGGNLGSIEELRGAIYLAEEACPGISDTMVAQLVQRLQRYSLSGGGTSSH
T1 sequence (O95382 whole entry): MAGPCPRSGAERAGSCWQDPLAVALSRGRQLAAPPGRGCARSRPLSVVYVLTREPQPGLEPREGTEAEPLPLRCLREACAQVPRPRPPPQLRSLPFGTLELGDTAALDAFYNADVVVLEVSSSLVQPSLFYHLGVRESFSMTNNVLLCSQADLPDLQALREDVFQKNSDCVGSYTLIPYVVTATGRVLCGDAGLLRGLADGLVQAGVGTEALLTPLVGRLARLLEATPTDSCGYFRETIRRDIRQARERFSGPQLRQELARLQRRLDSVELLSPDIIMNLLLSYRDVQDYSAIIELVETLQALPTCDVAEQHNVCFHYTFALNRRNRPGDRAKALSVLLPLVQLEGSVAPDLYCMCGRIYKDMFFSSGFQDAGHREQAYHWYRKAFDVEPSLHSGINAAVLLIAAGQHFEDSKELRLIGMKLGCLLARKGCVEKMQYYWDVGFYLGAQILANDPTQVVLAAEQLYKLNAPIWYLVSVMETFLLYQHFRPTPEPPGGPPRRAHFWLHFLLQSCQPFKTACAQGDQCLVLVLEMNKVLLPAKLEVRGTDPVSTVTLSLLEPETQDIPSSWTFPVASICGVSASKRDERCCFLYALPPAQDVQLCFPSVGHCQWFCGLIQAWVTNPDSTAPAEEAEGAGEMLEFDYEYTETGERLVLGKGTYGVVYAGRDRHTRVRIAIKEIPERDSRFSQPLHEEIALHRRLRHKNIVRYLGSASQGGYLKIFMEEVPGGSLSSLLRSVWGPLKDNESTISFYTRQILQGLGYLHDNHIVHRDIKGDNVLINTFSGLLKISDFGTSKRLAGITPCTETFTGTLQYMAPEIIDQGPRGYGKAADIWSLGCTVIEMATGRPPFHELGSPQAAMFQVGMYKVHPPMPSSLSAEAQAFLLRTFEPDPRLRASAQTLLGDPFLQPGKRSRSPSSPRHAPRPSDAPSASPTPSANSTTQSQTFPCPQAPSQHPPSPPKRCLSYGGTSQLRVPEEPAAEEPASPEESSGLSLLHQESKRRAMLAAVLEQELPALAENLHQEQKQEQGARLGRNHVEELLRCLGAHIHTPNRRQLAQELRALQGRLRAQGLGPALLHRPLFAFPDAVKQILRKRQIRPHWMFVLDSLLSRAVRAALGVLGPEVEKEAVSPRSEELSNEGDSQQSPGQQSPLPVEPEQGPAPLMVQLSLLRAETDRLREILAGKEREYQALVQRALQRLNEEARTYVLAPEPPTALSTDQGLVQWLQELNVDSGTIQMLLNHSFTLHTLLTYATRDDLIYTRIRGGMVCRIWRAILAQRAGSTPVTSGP
RAF1, sequence (P04049 whole entry): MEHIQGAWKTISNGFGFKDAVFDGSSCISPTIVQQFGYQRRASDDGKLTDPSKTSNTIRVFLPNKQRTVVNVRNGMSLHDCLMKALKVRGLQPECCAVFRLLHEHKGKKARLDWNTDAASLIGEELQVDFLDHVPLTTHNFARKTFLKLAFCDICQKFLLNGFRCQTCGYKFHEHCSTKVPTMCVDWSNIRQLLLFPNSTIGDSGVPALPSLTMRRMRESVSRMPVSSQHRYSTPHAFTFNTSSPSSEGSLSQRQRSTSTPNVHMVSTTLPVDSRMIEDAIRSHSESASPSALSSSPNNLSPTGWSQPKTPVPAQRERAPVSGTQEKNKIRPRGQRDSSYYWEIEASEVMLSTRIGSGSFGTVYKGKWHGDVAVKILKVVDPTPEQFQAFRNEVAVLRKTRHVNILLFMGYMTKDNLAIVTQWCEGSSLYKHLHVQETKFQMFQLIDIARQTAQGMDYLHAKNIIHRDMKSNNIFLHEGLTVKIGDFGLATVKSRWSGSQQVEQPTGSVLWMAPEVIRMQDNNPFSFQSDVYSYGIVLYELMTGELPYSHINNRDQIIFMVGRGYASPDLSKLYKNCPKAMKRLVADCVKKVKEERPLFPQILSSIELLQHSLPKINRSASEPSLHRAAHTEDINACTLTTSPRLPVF
T2 sequence (P07948 whole entry, canonical isoform): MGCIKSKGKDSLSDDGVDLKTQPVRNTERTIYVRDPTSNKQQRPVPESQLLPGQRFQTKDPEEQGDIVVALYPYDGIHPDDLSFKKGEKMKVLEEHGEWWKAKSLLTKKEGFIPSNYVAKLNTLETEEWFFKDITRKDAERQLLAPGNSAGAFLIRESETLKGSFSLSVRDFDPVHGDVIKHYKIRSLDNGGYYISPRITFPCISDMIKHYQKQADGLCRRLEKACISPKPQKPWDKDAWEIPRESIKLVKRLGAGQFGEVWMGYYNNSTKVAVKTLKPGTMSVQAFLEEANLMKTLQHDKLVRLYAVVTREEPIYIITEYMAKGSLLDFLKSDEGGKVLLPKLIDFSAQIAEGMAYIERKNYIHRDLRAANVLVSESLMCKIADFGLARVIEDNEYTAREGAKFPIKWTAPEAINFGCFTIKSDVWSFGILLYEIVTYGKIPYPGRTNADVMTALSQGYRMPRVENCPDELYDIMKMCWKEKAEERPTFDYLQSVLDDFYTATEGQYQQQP
FER, sequence (P16591 whole entry): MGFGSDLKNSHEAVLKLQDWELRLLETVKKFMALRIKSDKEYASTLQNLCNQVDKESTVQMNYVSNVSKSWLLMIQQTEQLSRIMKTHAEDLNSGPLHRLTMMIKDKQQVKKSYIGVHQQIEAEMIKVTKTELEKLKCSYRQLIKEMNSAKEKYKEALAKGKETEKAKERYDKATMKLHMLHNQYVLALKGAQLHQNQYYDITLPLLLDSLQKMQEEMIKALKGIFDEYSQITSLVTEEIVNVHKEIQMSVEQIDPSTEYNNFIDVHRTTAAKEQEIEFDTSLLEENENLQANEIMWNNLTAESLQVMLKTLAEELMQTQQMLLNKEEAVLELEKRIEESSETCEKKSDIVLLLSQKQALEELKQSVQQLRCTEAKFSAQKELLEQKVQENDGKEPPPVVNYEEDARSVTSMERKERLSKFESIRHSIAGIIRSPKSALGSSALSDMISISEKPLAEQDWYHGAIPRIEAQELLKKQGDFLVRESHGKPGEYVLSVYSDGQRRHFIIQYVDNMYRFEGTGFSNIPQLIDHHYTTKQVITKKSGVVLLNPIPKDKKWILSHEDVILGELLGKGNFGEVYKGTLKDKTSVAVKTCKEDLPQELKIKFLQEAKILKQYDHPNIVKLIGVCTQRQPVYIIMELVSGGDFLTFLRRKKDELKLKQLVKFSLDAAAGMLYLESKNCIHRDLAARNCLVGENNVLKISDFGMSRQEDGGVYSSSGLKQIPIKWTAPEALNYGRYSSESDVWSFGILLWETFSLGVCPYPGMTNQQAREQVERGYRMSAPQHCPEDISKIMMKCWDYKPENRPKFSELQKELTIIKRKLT

remaining activity at 0.3 µM (PKG2/PRKG2): 111%
remaining activity at 0.3 µM (ALK2/ACVR1): 90.6%
remaining activity at 0.3 µM (FER; [1]): 11.7%
remaining activity at 0.3 µM (FER; [2]): 11.4%
remaining activity at 0.3 µM (SBK1; [1]): 99%
remaining activity at 0.3 µM (SBK1; [2]): 95.5%
remaining activity at 0.3 µM (MSK1/RPS6KA5; [1]): 127%
remaining activity at 0.3 µM (MSK1/RPS6KA5; [2]): 123%
remaining activity at 0.3 µM (MST3/STK24; [1]): 106%
remaining activity at 0.3 µM (MST3/STK24; [2]): 103%
remaining activity at 0.3 µM (MEKK6; [1]): 95.3%
remaining activity at 0.3 µM (MEKK6; [2]): 95.2%
remaining activity at 0.3 µM (TSSK2; [1]): 88.4%
remaining activity at 0.3 µM (TSSK2; [2]): 86.9%
remaining activity at 0.3 µM (LYN B; [1]): 99.5%
remaining activity at 0.3 µM (LYN B; [2]): 99.4%
remaining activity at 0.3 µM (PAK2): 104%
remaining activity at 0.3 µM (RAF1; [1]): 90.8%
remaining activity at 0.3 µM (RAF1; [2]): 90.2%
remaining activity at 0.3 µM (STK38/NDR1; [1]): 38.8%
remaining activity at 0.3 µM (STK38/NDR1; [2]): 38.7%
pIC50 (Aurora A): 5.27
pIC50 (TNK1): 8.85
Structure (SMILES): COc1cc(N2CCN(C)CC2)c(C)cc1Nc1ncc(Br)c(Nc2cccnc2N(C)C)n1 [TP-5801]
